The values below come from US20230312529A1, “PYRIMIDINE SMALL-MOLECULE COMPOUND AND APPLICATION THEREOF” (WENZHOU MEDICAL UNIVERSITY, priority 2021, published 2023).

Structures are written as SMILES. Several values for one entry are separate records, joined by “and”; a condition that tells them apart may be missing. Equal entries are not always repeated. Where two headings read alike, the source gives them in different places. Bounds are passed on as bounds.

The target in one experiment is FLT3 (Homo sapiens (Human), UniProt P36888). Description: Caliper Mobility Shift kinase inhibition test. In kind it is biochemical. Conditions: 100 nM; for inhibition at 0.1 µM: read-out: inhibitory rate on FLT3. As to the method:
(§1) The method adopted in the test was Caliper Mobility Shift Assay, which was a detection platform based on the mobility detection technology of microfluidic chip technology. Test steps: 1.25× kinase reaction buffer (62.5 mmol/L HEPES, pH 7.5; 0.001875% Brij-35; 12.5 mmol/L MgCl2; 2.5 mM DTT) and kinase reaction stop solution (100 mmol/L HEPES, pH 7.5; 0.015% Brij-35; 0.2% Coating Reagent #3) were configured. […] Collected data was tested on Caliper to yield that inhibition ratio to kinase activity=(max−conversion)/(max−min)×100. “max” was DMSO control without adding compound, and “min” was low control. When IC50 was determined, each sample was provided with 10 dilutions, each with 2 multiple holes, and repeated for 3 times.

In the next experiment the target is PDGFRβ (Homo sapiens (Human), UniProt P09619). Nature of the experiment: Caliper Mobility Shift kinase inhibition test. Conditions: for inhibitory rate on PDGFR-β / inhibition at 0.1 µM: 100 nM; for inhibition at 0.1 µM: read-out: inhibitory rate on PDGFR-β; for IC50: read-out: IC50 PDGFR-β. In kind it is biochemical. The method, then:
as §1
(§2) According to the above-mentioned method for measuring kinase inhibitory activity, the inhibitory activity of the active compounds on other multiple kinases was measured to characterize the kinase selectivity of active inhibitors.

The target of a further experiment is PDGFRα (Homo sapiens (Human), UniProt P16234). Nature of the experiment: Caliper Mobility Shift kinase inhibition test. In kind it is biochemical. As to the method:
(§3) The method adopted in the test was Caliper Mobility Shift Assay, which was a detection platform based on the mobility detection technology of microfluidic chip technology. […] Collected data was tested on Caliper to yield that inhibition ratio to kinase activity=(max−conversion)/(max−min)×100. “max” was DMSO control without adding compound, and “min” was low control. When IC50 was determined, each sample was provided with 10 dilutions, each with 2 multiple holes, and repeated for 3 times.

A further experiment concerns the target ABL1 (Homo sapiens (Human), UniProt P00519). Nature of the experiment: Caliper Mobility Shift kinase inhibition test. In kind it is biochemical. Conditions: 100 nM; for inhibition at 0.1 µM: read-out: inhibitory rate on ABL1. As to the method: as §3
A further experiment deals with IKK β (Homo sapiens (Human), UniProt O14920). Description: Caliper Mobility Shift kinase inhibition test. In kind it is biochemical. As to the method:
as §1

A further experiment addresses ALK (Homo sapiens (Human), UniProt Q9UM73). Nature of the experiment: Caliper Mobility Shift kinase inhibition test. In kind it is biochemical. The method, then:
as §1

A further experiment deals with FGFR2 (Homo sapiens (Human), UniProt P21802). Nature of the experiment: Caliper Mobility Shift kinase inhibition test. It counts as biochemical. The method, then:
as §1, §2

The target in the next experiment is JAK1 (Homo sapiens (Human), UniProt P23458). Description: Caliper Mobility Shift kinase inhibition test. In kind it is biochemical. As to the method: as §1, §2
Sequence of JAK1 (P23458 whole entry, species assumed): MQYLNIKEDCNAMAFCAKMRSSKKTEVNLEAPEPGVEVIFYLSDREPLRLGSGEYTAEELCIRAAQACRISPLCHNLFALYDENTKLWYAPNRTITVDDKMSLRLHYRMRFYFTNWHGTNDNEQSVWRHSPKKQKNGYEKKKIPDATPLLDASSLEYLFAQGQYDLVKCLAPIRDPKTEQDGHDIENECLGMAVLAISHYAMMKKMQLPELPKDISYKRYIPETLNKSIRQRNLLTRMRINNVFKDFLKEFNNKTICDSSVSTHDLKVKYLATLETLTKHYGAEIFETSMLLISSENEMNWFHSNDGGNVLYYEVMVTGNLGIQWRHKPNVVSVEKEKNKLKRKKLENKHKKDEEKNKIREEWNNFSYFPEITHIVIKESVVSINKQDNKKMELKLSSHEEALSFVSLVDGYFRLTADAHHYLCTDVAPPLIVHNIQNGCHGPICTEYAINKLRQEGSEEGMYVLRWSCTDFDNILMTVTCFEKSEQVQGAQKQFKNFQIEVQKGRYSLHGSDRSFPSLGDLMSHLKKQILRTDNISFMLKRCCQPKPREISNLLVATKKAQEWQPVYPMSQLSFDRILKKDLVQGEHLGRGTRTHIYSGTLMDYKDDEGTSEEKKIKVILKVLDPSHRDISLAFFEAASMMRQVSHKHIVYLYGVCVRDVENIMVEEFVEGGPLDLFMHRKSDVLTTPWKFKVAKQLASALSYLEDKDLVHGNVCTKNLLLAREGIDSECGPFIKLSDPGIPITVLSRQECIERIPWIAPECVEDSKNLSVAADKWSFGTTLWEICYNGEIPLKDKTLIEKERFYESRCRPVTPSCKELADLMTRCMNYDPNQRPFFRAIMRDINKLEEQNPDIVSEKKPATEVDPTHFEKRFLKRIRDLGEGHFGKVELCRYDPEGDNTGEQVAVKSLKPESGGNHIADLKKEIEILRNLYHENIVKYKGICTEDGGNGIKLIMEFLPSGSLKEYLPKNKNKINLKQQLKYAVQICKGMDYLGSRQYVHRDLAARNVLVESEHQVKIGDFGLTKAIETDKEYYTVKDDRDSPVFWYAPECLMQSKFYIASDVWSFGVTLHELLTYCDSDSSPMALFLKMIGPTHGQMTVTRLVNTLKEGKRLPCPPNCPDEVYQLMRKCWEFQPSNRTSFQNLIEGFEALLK
The subject of a further experiment is U2OS osteosarcoma cells. Description: MTT assay on osteosarcoma cells. In kind it is cell-based. Conditions: Homo sapiens, 48 hours, read-out: Inhibitory activity (IC50) U2OS. The method, then: (§4) Logarithmic osteosarcoma cells were inoculated into a 96-well plate with a cell concentration of 1,500 cell/well for 6 hours by using MTT assay, and each well was filled with 200 μL of cell suspension. […] The samples were cultured in an incubator for 48 hours (37° C., 5% CO2), and 20 v L of MTT (3-(4,5-dimethylthiazole-2)-2,5-diphenyltetrazole) were added into each hole. After continuous culture for 4 hours, the culture solution was discarded by suction, and 200 v L of DMSO were added to each well. […] Calculation method of IC50 value: the IC50 values of the samples were calculated by curve fitting with GraphPad Prism software.
Background: Tetrazolium dyes change colour on reduction, which living cells bring about.

Experiment [1] deals with MNNG/HOS osteosarcoma cells. Nature of the experiment: MTT assay on osteosarcoma cells. The settings on record: 48 hours, read-out: Inhibitory activity (IC50) MNNG/HOS. In kind it is cell-based. The method, then:
as §4

Another experiment concerns MG-63 osteosarcoma cells. Description: MTT assay on osteosarcoma cells. In kind it is cell-based. The settings on record: Homo sapiens, 48 hours, read-out: Inhibitory activity (IC50) MG-63. The method, then: as §4
Experiment [2] has as its system SAOS-2 osteosarcoma cells. Description: MTT assay on osteosarcoma cells. It counts as cell-based. The settings on record: Homo sapiens, 48 hours, read-out: Inhibitory activity (IC50) SAOS-2. The method, then: as §4
The subject of experiment [3] is human cerebrovascular pericytes (HBVP). Nature of the experiment: MTT assay on human neovascular cells. In kind it is cell-based. The settings on record: Homo sapiens; MTT; read-out: Inhibitory activity (IC50) HBVP.
Experiment [4] deals with human brain microvascular endothelial cells (HCMEC/D3). Description: MTT assay on human neovascular cells. In kind it is cell-based. The settings on record: Homo sapiens, hCMEC/D3; MTT; read-out: Inhibitory activity (IC50) HCMEC-D3.
For experiment [5], the system named is human normal retinal cells ARPE-19. Nature of the experiment: MTT assay on human retinal cells. It counts as cell-based. The settings on record: Homo sapiens, ARPE-19; MTT; read-out: Inhibitory activity (IC50) ARPE-19.

Sequence of ALK (Q9UM73 19-1620, species assumed): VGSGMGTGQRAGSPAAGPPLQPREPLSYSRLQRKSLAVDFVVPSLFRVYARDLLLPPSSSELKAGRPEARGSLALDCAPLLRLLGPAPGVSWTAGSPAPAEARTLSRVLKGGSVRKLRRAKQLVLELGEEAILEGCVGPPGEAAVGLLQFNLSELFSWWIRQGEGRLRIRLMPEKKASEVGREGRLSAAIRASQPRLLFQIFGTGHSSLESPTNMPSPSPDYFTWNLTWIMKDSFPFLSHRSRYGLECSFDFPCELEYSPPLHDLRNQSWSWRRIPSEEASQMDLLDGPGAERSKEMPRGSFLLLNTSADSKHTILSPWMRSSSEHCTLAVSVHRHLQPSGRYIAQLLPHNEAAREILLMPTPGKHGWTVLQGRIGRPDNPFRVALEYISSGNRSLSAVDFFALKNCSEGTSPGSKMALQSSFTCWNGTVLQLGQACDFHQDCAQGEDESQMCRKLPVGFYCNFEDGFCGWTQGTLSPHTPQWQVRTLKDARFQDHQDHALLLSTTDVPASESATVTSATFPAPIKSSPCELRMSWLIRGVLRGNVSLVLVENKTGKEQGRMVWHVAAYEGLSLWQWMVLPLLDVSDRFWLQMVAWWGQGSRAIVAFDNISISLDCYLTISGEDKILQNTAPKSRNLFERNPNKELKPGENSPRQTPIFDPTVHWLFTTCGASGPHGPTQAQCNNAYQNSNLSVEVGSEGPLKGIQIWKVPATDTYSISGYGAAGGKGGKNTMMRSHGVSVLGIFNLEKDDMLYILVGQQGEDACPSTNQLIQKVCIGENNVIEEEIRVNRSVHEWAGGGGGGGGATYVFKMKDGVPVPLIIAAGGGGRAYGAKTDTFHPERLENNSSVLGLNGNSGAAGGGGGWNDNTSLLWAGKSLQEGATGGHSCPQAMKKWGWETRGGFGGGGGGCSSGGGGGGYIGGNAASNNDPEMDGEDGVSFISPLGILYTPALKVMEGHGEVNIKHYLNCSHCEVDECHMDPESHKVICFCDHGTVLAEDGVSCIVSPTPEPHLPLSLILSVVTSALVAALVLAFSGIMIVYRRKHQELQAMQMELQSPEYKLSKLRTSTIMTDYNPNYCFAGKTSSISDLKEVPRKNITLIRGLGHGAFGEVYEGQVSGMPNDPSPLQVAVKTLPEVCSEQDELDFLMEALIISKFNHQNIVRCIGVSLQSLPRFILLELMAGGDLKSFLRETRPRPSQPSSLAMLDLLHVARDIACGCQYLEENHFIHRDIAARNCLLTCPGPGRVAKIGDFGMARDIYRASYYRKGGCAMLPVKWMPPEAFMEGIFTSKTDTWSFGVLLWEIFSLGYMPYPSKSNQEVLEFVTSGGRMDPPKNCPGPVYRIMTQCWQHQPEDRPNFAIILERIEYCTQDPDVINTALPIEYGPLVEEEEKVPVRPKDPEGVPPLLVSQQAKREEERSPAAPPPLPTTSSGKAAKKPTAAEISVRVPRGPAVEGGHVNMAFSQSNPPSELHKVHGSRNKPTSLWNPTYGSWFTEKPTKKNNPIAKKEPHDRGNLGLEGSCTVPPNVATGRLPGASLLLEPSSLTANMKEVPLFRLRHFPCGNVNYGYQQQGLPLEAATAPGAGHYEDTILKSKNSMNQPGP
Sequence of FLT3 (P36888 27-993): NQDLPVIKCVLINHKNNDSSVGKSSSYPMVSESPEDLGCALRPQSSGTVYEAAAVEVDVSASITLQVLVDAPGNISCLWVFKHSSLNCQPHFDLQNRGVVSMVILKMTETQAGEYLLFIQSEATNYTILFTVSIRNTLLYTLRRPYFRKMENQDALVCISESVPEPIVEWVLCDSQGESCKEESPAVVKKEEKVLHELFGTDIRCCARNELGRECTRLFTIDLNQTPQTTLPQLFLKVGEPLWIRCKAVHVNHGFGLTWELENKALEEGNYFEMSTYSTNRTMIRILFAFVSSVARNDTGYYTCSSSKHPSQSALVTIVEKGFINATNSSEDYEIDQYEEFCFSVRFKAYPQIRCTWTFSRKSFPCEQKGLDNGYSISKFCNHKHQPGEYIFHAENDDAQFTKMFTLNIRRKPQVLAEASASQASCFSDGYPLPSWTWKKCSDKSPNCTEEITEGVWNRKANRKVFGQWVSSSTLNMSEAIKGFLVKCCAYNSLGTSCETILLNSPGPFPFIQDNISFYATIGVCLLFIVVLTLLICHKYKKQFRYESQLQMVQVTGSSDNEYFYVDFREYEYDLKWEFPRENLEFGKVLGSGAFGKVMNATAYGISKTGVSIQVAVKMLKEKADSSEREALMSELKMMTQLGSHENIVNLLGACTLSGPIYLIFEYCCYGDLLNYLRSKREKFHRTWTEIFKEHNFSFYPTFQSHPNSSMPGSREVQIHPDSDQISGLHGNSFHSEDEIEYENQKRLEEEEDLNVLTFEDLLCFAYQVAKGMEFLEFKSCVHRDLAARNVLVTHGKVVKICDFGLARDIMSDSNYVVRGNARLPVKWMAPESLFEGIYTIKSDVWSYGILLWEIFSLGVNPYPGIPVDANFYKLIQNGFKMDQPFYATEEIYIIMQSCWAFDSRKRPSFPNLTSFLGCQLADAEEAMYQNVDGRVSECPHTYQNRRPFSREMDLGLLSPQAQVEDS
Sequence of FGFR2 (P21802 22-821, species assumed): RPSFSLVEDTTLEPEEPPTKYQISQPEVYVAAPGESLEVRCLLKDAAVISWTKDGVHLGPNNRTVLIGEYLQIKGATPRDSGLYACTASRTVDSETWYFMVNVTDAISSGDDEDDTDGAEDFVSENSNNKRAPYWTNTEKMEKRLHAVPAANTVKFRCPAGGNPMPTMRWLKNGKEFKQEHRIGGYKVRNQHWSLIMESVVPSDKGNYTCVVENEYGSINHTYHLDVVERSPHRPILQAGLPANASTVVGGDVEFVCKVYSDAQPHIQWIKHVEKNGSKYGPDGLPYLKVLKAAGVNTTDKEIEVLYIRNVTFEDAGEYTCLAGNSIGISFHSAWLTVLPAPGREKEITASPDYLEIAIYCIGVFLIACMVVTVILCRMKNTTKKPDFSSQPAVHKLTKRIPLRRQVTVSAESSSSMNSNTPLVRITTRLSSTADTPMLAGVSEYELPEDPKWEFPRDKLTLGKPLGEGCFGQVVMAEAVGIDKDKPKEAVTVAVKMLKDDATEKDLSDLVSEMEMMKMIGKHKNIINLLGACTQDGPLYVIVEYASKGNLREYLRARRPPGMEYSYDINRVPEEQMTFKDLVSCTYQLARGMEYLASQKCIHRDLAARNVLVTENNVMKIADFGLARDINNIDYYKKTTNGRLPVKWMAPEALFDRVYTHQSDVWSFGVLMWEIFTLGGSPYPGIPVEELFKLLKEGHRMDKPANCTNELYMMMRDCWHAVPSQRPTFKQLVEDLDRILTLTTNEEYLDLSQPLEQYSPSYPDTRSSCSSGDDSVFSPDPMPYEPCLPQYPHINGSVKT

For the compound `Cc1cc2c(Nc3ccc4cn[nH]c4c3)nc(Nc3ccc(N4CCN(C)CC4)cc3)nc2s1` [Compound 3i], the “inhibitory rate on FLT3” value at FLT3 is 42.6%. Besides, the “inhibitory rate on PDGFR-β” value on PDGFRβ turned out to be 30.7%. In addition, the “inhibitory rate on PDGFR-α” value at PDGFRα (100 nM) was 6.6%. Also, the “inhibitory rate on ABL1” value on ABL1 amounted to 23.6%.

Consider `Cc1cnc(Nc2ccc(N3CCN(C)CC3)cc2)nc1Nc1ccc2[nH]ccc2c1` [Compound 5a], for which the “inhibitory rate on FLT3” value on FLT3 turned out to be 60.3%. At PDGFRβ, the “inhibitory rate on PDGFR-β” value was 78.6%. Further, at PDGFRα (100 nM), the “inhibitory rate on PDGFR-α” value was determined as 57.3%. Besides, the “inhibitory rate on ABL1” value at ABL1 is given as 58.9%.

For the compound `Cc1cnc(Nc2ccc(N3CCN(C)CC3)cc2)nc1Nc1ccc2cnn(C)c2c1` [Compound 5k, 5-methyl-N^4-(1-methyl-1H-indazol-6-yl)-N^2-(4-(4-methylpiperazine-1-yl)phenyl)pyrimidine-2,4-diamine], the inhibition at 0.1 µM worked out at 88.7% on FLT3; 96.4% at PDGFRβ; 91.1% at PDGFRα (100 nM, read-out: inhibitory rate on PDGFR-α); 90.4% at ABL1. For the same compound, the IC50 at PDGFRβ was 7.3 nM; at PDGFRα (read-out: IC50 PDGFR-α), 19 nM.

With `Cc1cnc(Nc2ccc(N3CCC(F)(F)CC3)cc2)nc1Nc1ccc2cn[nH]c2c1` [Compound 6c], the IC50 on IKK β is over 1000 nM; at ALK it was 476 nM; on FGFR2, 540 nM; on PDGFRβ, 103 nM; on JAK1, 72 nM. Besides, the “inhibitory rate on FLT3” value on FLT3 was found to be 74.6%. Also, at PDGFRβ, the “inhibitory rate on PDGFR-β” value turned out to be 48.5%. Also, the “inhibitory rate on ABL1” value on ABL1 is 50.6%.

For `Cc1cnc(Nc2ccc(N3CCS(=O)(=O)CC3)cc2)nc1Nc1ccc2cn[nH]c2c1` [Compound 6d, 4-(4-((4-((1H-indazol-6-yl)amino)-5-methylpyrimidine-2-yl)amino)phenyl)thiomorpholine 1,1-dioxide], the IC50 at IKK β was 619 nM; on ALK, 186 nM; at FGFR2 it was 117 nM; on PDGFRβ it was 70.3 nM and 39 nM; on JAK1 it was 99 nM. Besides, the inhibition at 0.1 µM was 78.4% on FLT3, 70.3% at PDGFRβ and 59.6% at ABL1.

For the compound `COc1cc(N2CCN(C)CC2)ccc1Nc1ncc(C)c(Nc2ccc3cn[nH]c3c2)n1` [Compound 6e, N^4-(1H-indazol-6-yl)-N^2-(2-methoxy-4-(4-methylpiperazine-1-yl)phenyl)-5-methylpyrimidine-2,4-diamine], the IC50 at IKK β is over 1000 nM; on ALK, 7 nM; at FGFR2, over 1000 nM; on PDGFRβ it was 72 nM; on JAK1 it was 199 nM. Further, the inhibition at 0.1 µM at FLT3 amounted to 79.5%; at PDGFRβ it was 63.4%; on ABL1, 78.8%.

Take `Cc1cnc(Nc2ccc(N3CCN(C)CC3)cc2)nc1Nc1ccc2cn[nH]c2c1` [Compound 6g, N^4-(1H-indazol-6-yl)-5-methyl-N^2-(4-(4-methylpiperazine-1-yl)phenyl)pyrimidine-2,4-diamine]: the IC50 on IKK β came to 595 nM; on ALK, 26 nM; at FGFR2 it was 81 nM; on PDGFRβ, 8.8 nM; at JAK1, 13 nM. In addition, the “inhibitory rate on FLT3” value at FLT3 is 87.6%. In addition, the “inhibitory activity on PDGFRβ (in words)” value on PDGFRβ is given as “significant inhibitory activities”. The “inhibitory rate on PDGFR-β” value on PDGFRβ is reported as 93.8%. Besides, the “inhibitory rate on ABL1” value on ABL1 was 89.6%.

`CCN1CCN(c2ccc(Nc3ncc(C)c(Nc4ccc5cn[nH]c5c4)n3)c(OC)c2)CC1` [Compound 6h, N^2-(4-(4-ethylpiperazine-1-yl)-2-methoxyphenyl)-N^4-(1H-indazol-6-yl)-5-methylpyrimidine-2,4-diamine]: the IC50 at IKK β is over 1000 nM; on ALK, 5.8 nM; on FGFR2, over 1000 nM; at PDGFRβ it was 40 nM; at JAK1, 320 nM. In addition, the inhibition at 0.1 µM at FLT3 was determined as 82.6%; at PDGFRβ it was 80.2%; at ABL1, 87.5%.

`Cc1cnc(Nc2ccc(N3CCC(N4CCN(C)CC4)CC3)cc2)nc1Nc1ccc2cn[nH]c2c1` [Compound 6j, N^4-(1H-indazol-6-yl)-5-methyl-N^2-(4-(4-(4-methylpiperazine-1-y 1)piperidine-1-yl)phenyl)pyrimidine-2,4-diamine]: the IC50 at IKK β is over 1000 nM; on ALK, 23 nM; on FGFR2, 89 nM; on PDGFRβ, 12 nM; on JAK1, 14 nM. Moreover, the “inhibitory rate on FLT3” value on FLT3 is 91.0%. Moreover, at PDGFRβ, the “inhibitory rate on PDGFR-β” value is 85.4%. In addition, the “inhibitory rate on ABL1” value at ABL1 is reported as 87.6%.

In the case of `COc1cc(N2CCC(N3CCN(C)CC3)CC2)ccc1Nc1ncc(C)c(Nc2ccc3cn[nH]c3c2)n1` [Compound 6k, N^4-(1H-indazol-6-yl)-N^2-(2-methoxy-4-(4-(4-methylpiperazine-1-yl)piperidine-1-yl)phenyl)-5-methylpyrimidine-2,4-diamine], the inhibition at 0.1 µM at FLT3 is 58.4%; at PDGFRβ, 76.4%; on ABL1, 47.5%.

`Cc1cnc(Nc2ccc(C(=O)N3CCN(C)CC3)cc2)nc1Nc1ccc2cn[nH]c2c1` [Compound 6m, (4-((4-((1H-indazol-6-yl)amino)-5-methylpyrimidine-2-yl)amino)phenyl) (4-methylpiperazine-1-yl)methanone]: the inhibition at 0.1 µM on FLT3 was determined as 85.6%; on PDGFRβ it was 78.4%; on ABL1 it was 81%.

Regarding `Cc1cnc(Nc2ccc(C(=O)NCCN3CCOCC3)cc2)nc1Nc1ccc2cn[nH]c2c1` [Compound 6n], the IC50 stood at 181 nM on IKK β; 95 nM at ALK; 102 nM on FGFR2; 19 nM on PDGFRβ; 6 nM on JAK1. Also, the “inhibitory rate on FLT3” value at FLT3 was found to be 82.3%. Besides, the “inhibitory rate on PDGFR-β” value at PDGFRβ was determined as 82.4%. The “inhibitory rate on ABL1” value on ABL1 came out at 81.2%.

With `Cc1ccc(Nc2nccc(N(C)c3ccc4c(C)n(C)nc4c3)n2)cc1S(N)(=O)=O` [Pazopanib, reference compound], the inhibition at 0.1 µM is 80.6% at FLT3; 76.7% at PDGFRβ; 96.9% at PDGFRα (read-out: inhibitory rate on PDGFR-α, 100 nM). Also, the IC50 in the experiment on U2OS osteosarcoma cells was over 100 µM; in experiment [1] it was 8.52 ± 0.868 µM; in the experiment with MG-63 osteosarcoma cells, over 100 µM; in experiment [2], over 100 µM.

For the compound `CNC(=O)c1cc(Oc2ccc(NC(=O)Nc3ccc(Cl)c(C(F)(F)F)c3)cc2)ccn1` [Sorafenib, reference compound], the values for the IC50 in experiment [3], in experiment [4] and in [5] were 9.92 ± 0.598 µM, 6.32 ± 0.73 µM and 23.29 ± 0.143 µM, respectively.

For the compound `Cc1[nH]c(/C=C2\C(=O)Nc3ccc(F)cc32)c(C)c1C(=O)N[C@H]1CCN(C(=O)N(C)C)C1` [Vorolanib, reference compound], the IC50 in experiment [3] was determined as 18.5 ± 10.5 µM; in [4], 34.3 ± 0.885 µM; in experiment [5], 56.2 ± 3.23 µM.
